From ChEMBL document CHEMBL5723584 (2023)

Assays:
[1] = biological target: Casein kinase I isoform alpha (Homo sapiens) (UniProt P48729); experiment: activity of CK1alpha(h) at 1.0 µM in the Eurofins Kinase panel; conditions: Compound concentration 1.0 uM
[2] = biological target: Phosphorylase b kinase gamma catalytic chain, skeletal muscle/heart isoform (Homo sapiens) (UniProt Q16816); experiment: activity of PhKgamma1(h) at 1.0 µM in the Eurofins Kinase panel; conditions: Compound concentration 1.0 uM
[3] = biological target: cAMP-dependent protein kinase catalytic subunit PRKX (Homo sapiens) (UniProt P51817); experiment: activity of PrKX(h) at 1.0 µM in the Eurofins Kinase panel; conditions: Compound concentration 1.0 uM
[4] = biological target: TRAF2 and NCK-interacting protein kinase (Homo sapiens) (UniProt Q9UKE5); experiment: activity of TNIK(h) at 1.0 µM in the Eurofins Kinase panel; conditions: Compound concentration 1.0 uM
[5] = biological target: Serine/threonine-protein kinase Nek11 (Homo sapiens) (UniProt Q8NG66); experiment: activity of NEK11(h) at 1.0 µM in the Eurofins Kinase panel; conditions: Compound concentration 1.0 uM
[6] = biological target: Muscle, skeletal receptor tyrosine-protein kinase (Homo sapiens) (UniProt O15146); experiment: activity of MuSK(h) at 1.0 µM in the Eurofins Kinase panel; conditions: Compound concentration 1.0 uM
[7] = biological target: Tyrosine-protein kinase ZAP-70 (Homo sapiens) (UniProt P43403); experiment: activity of ZAP-70(h) at 1.0 µM in the Eurofins Kinase panel; conditions: Compound concentration 1.0 uM
[8] = biological target: Platelet-derived growth factor receptor beta (Homo sapiens) (UniProt P09619); experiment: activity of PDGFRbeta(h) at 1.0 µM in the Eurofins Kinase panel; conditions: Compound concentration 1.0 uM
[9] = biological target: Phosphatidylinositol 5-phosphate 4-kinase type-2 alpha (Homo sapiens) (UniProt P48426); experiment: activity of PIP4K2alpha(h) at 1.0 µM in the Eurofins Kinase panel; conditions: Compound concentration 1.0 uM
[10] = biological target: Aurora kinase C (Homo sapiens) (UniProt Q9UQB9); experiment: activity of Aurora-C(h) at 1.0 µM in the Eurofins Kinase panel; conditions: Compound concentration 1.0 uM
[11] = biological target: Ephrin type-B receptor 2 (Homo sapiens) (UniProt P29323); experiment: activity of EphB2(h) at 1.0 µM in the Eurofins Kinase panel; conditions: Compound concentration 1.0 uM
[12] = biological target: Rhodopsin kinase GRK7 (Homo sapiens) (UniProt Q8WTQ7); experiment: activity of GRK7(h) at 1.0 µM in the Eurofins Kinase panel; conditions: Compound concentration 1.0 uM
[13] = biological target: Serine/threonine-protein kinase PAK 5 (Homo sapiens) (UniProt Q9P286); experiment: activity of PAK5(h) at 1.0 µM in the Eurofins Kinase panel; conditions: Compound concentration 1.0 uM
[14] = biological target: Serine/threonine-protein kinase VRK2 (Homo sapiens) (UniProt Q86Y07); experiment: activity of VRK2(h) at 1.0 µM in the Eurofins Kinase panel; conditions: Compound concentration 1.0 uM
[15] = biological target: Serine/threonine-protein kinase PAK 2 (Homo sapiens) (UniProt Q13177); experiment: activity of PAK2(h) at 1.0 µM in the Eurofins Kinase panel; conditions: Compound concentration 1.0 uM
[16] = biological target: mTOR/FKBP12A/FKBP12B (Homo sapiens) (UniProt P62942+P68106+P42345); experiment: activity of mTOR/FKBP12(h) at 1.0 µM in the Eurofins Kinase panel; assay type: protein-complex assay; conditions: Compound concentration 1.0 uM
[17] = biological target: Insulin-like growth factor 1 receptor (Homo sapiens) (UniProt P08069); experiment: activity of IGF-1R(h) at 1.0 µM in the Eurofins Kinase panel; conditions: Compound concentration 1.0 uM
[18] = biological target: RAC-gamma serine/threonine-protein kinase (Homo sapiens) (UniProt Q9Y243); experiment: activity of PKBgamma(h) at 1.0 µM in the Eurofins Kinase panel; conditions: Compound concentration 1.0 uM
[19] = biological target: Serine/threonine-protein kinase 33 (Homo sapiens) (UniProt Q9BYT3); experiment: activity of STK33(h) at 1.0 µM in the Eurofins Kinase panel; conditions: Compound concentration 1.0 uM
[20] = biological target: Proto-oncogene tyrosine-protein kinase receptor Ret (Homo sapiens) (UniProt P07949); experiment: activity of Ret(h) at 1.0 µM in the Eurofins Kinase panel; conditions: Compound concentration 1.0 uM
[21] = biological target: Ephrin type-A receptor 4 (Homo sapiens) (UniProt P54764); experiment: activity of EphA4(h) at 1.0 µM in the Eurofins Kinase panel; conditions: Compound concentration 1.0 uM
[22] = biological target: Casein kinase I isoform gamma-3 (Homo sapiens) (UniProt Q9Y6M4); experiment: activity of CK1gamma3(h) at 1.0 µM in the Eurofins Kinase panel; conditions: Compound concentration 1.0 uM
[23] = biological target: Ribosomal protein S6 kinase alpha-5 (Homo sapiens) (UniProt O75582); experiment: activity of MSK1(h) at 1.0 µM in the Eurofins Kinase panel; conditions: Compound concentration 1.0 uM
[24] = biological target: Serine/threonine-protein kinase 24 (Homo sapiens) (UniProt Q9Y6E0); experiment: activity of MST3(h) at 1.0 µM in the Eurofins Kinase panel; conditions: Compound concentration 1.0 uM
[25] = biological target: Ephrin type-B receptor 4 (Homo sapiens) (UniProt P54760); experiment: activity of EphB4(h) at 1.0 µM in the Eurofins Kinase panel; conditions: Compound concentration 1.0 uM
[26] = biological target: Tyrosine-protein kinase Mer (Homo sapiens) (UniProt Q12866); experiment: activity of Mer(h) at 1.0 µM in the Eurofins Kinase panel; conditions: Compound concentration 1.0 uM
[27] = biological target: cAMP-dependent protein kinase catalytic subunit alpha (Homo sapiens, UniProt P17612); experiment: Promega NanoBRET (PRKACA)
[28] = biological target: Serine/threonine-protein kinase MARK1 (Homo sapiens) (UniProt Q9P0L2); experiment: activity of MARK1(h) at 1.0 µM in the Eurofins Kinase panel; conditions: Compound concentration 1.0 uM
[29] = biological target: Serine/threonine-protein kinase 4 (Homo sapiens) (UniProt Q13043); experiment: activity of MST1(h) at 1.0 µM in the Eurofins Kinase panel; conditions: Compound concentration 1.0 uM
[30] = biological target: Phosphatidylinositol 4-phosphate 3-kinase C2 domain-containing subunit alpha (Homo sapiens) (UniProt O00443); experiment: activity of PI3KC2alpha(h) at 1.0 µM in the Eurofins Kinase panel; conditions: Compound concentration 1.0 uM
[31] = biological target: Serine/threonine-protein kinase 32C (Homo sapiens) (UniProt Q86UX6); experiment: activity of STK32C(h) at 1.0 µM in the Eurofins Kinase panel; conditions: Compound concentration 1.0 uM
[32] = biological target: Proto-oncogene tyrosine-protein kinase ROS (Homo sapiens) (UniProt P08922); experiment: activity of Ros(h) at 1.0 µM in the Eurofins Kinase panel; conditions: Compound concentration 1.0 uM
[33] = biological target: Serine/threonine-protein kinase PAK 6 (Homo sapiens) (UniProt Q9NQU5); experiment: activity of PAK6(h) at 1.0 µM in the Eurofins Kinase panel; conditions: Compound concentration 1.0 uM
[34] = biological target: Eukaryotic translation initiation factor 2-alpha kinase 1 (Homo sapiens) (UniProt Q9BQI3); experiment: activity of HRI(h) at 1.0 µM in the Eurofins Kinase panel; conditions: Compound concentration 1.0 uM
[35] = biological target: Tyrosine-protein kinase Fyn (Homo sapiens) (UniProt P06241); experiment: activity of Fyn(h) at 1.0 µM in the Eurofins Kinase panel; conditions: Compound concentration 1.0 uM
[36] = biological target: Tyrosine-protein kinase JAK2 (Homo sapiens) (UniProt O60674); experiment: activity of JAK2(h) at 1.0 µM in the Eurofins Kinase panel; conditions: Compound concentration 1.0 uM
[37] = biological target: Cyclin-dependent kinase-like 1 (Homo sapiens) (UniProt Q00532); experiment: activity of CDKL1(h) at 1.0 µM in the Eurofins Kinase panel; conditions: Compound concentration 1.0 uM
[38] = biological target: Tyrosine-protein kinase TXK (Homo sapiens) (UniProt P42681); experiment: activity of Txk(h) at 1.0 µM in the Eurofins Kinase panel; conditions: Compound concentration 1.0 uM
[39] = biological target: Mitogen-activated protein kinase 9 (Homo sapiens) (UniProt P45984); experiment: activity of JNK2alpha2(h) at 1.0 µM in the Eurofins Kinase panel; conditions: Compound concentration 1.0 uM

Chain of Serine/threonine-protein kinase PAK 6 (Homo sapiens) (Q9NQU5 whole entry, looked up): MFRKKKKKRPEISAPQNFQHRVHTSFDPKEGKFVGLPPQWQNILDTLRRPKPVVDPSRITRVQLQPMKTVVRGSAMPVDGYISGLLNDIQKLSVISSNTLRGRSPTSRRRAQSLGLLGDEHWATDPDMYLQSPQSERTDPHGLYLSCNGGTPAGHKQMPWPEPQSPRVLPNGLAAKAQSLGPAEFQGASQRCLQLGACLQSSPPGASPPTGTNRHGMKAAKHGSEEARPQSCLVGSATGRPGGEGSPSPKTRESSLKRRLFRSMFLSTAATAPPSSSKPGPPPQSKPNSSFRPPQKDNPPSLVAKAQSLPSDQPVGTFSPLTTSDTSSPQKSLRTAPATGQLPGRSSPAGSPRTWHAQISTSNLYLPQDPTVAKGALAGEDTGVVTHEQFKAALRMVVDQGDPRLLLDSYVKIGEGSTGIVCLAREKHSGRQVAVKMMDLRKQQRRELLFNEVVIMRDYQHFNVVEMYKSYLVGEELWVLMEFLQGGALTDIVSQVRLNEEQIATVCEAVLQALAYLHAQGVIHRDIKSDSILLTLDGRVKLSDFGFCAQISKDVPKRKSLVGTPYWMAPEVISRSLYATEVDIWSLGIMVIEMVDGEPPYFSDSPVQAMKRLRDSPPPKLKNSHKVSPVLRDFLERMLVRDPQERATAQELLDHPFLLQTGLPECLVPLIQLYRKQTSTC
Chain of Casein kinase I isoform alpha (Homo sapiens) (P48729 2-337 limits assumed): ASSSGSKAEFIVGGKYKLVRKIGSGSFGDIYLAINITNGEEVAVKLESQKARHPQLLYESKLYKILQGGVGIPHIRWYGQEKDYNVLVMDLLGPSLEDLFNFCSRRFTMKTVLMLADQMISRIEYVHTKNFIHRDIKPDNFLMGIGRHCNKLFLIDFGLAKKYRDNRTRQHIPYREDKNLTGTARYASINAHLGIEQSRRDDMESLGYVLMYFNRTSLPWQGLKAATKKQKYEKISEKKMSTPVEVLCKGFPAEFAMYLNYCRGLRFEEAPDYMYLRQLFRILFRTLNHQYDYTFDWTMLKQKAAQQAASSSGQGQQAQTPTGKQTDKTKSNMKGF
Chain of Casein kinase I isoform gamma-3 (Homo sapiens) (Q9Y6M4 whole entry, looked up, canonical isoform): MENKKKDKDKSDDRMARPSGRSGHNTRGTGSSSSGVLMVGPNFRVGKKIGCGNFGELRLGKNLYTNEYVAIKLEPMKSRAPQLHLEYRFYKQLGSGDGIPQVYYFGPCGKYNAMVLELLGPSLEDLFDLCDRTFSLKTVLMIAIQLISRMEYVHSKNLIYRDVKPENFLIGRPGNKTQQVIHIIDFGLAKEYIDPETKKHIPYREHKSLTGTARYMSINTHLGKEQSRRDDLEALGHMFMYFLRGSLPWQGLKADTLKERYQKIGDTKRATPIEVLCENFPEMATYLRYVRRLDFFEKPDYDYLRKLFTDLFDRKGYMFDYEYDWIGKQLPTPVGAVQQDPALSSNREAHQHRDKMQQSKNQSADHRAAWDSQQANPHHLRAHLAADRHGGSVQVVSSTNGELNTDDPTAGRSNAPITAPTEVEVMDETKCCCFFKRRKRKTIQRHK
Chain of Serine/threonine-protein kinase 32C (Homo sapiens) (Q86UX6 whole entry): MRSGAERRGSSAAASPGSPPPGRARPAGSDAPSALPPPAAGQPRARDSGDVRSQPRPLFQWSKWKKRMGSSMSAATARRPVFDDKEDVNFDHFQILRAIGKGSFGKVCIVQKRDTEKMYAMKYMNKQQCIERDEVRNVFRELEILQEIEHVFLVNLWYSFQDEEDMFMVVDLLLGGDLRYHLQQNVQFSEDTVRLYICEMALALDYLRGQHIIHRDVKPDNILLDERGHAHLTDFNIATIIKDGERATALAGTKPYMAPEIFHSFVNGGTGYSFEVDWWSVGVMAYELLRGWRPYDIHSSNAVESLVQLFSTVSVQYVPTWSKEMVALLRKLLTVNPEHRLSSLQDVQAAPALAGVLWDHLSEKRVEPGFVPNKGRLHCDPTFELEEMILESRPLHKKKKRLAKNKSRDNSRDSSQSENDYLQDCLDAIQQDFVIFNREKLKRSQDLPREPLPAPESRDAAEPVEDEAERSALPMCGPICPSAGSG
Chain of RAC-gamma serine/threonine-protein kinase (Homo sapiens) (Q9Y243 whole entry): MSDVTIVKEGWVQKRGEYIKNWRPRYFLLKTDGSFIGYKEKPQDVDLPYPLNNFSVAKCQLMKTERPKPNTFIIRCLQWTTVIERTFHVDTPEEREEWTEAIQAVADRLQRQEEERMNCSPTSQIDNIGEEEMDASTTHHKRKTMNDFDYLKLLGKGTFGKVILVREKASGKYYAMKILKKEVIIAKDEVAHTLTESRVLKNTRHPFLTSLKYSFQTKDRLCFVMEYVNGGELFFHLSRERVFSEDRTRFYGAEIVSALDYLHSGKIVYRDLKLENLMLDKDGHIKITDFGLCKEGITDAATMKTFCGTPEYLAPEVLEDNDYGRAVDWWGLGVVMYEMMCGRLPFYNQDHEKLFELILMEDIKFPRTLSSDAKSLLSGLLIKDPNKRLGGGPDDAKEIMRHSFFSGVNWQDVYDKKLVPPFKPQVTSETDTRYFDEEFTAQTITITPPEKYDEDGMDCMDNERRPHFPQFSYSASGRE
Chain of Proto-oncogene tyrosine-protein kinase receptor Ret (Homo sapiens) (P07949 whole entry): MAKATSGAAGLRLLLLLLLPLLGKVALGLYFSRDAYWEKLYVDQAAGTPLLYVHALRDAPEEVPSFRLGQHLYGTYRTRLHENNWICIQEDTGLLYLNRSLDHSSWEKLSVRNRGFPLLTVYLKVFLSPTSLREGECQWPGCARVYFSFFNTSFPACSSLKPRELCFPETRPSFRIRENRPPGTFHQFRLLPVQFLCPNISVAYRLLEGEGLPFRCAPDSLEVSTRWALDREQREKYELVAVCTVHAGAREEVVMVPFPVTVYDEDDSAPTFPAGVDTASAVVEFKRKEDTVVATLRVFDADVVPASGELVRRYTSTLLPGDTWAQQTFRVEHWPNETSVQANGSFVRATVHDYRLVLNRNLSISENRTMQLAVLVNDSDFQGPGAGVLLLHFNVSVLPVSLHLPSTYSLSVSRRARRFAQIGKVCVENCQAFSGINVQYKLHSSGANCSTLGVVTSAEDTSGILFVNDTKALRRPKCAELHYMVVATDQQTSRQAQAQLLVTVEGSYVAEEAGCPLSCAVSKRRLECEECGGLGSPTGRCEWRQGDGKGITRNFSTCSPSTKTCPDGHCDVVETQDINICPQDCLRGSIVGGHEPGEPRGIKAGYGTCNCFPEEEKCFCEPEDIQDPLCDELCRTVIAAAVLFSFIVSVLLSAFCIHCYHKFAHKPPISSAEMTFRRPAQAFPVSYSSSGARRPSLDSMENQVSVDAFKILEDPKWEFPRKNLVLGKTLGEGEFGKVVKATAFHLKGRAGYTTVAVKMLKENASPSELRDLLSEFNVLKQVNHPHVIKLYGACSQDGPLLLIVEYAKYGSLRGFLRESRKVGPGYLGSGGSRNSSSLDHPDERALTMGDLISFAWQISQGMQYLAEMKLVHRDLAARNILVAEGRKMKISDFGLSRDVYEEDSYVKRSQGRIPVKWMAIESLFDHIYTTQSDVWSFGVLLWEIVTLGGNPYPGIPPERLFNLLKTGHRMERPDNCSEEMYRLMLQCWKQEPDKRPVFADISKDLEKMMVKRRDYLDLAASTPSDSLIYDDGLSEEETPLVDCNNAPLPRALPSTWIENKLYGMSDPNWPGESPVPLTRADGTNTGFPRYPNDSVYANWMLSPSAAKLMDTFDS
Chain of Tyrosine-protein kinase Fyn (Homo sapiens) (P06241 2-537 limits assumed): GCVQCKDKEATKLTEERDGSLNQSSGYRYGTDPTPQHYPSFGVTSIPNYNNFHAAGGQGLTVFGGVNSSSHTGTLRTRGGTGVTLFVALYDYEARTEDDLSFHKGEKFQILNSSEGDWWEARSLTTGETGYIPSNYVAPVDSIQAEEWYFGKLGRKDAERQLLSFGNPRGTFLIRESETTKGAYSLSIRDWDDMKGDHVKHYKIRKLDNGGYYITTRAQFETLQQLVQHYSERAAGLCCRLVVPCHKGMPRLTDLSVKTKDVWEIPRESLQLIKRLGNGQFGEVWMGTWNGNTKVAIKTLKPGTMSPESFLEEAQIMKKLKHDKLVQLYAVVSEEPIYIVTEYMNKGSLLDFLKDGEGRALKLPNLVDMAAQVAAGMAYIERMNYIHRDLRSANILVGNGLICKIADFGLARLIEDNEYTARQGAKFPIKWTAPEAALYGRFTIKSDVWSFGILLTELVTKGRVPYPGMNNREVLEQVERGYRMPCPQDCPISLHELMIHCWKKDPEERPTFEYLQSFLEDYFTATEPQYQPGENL
Chain of Rhodopsin kinase GRK7 (Homo sapiens) (Q8WTQ7 whole entry): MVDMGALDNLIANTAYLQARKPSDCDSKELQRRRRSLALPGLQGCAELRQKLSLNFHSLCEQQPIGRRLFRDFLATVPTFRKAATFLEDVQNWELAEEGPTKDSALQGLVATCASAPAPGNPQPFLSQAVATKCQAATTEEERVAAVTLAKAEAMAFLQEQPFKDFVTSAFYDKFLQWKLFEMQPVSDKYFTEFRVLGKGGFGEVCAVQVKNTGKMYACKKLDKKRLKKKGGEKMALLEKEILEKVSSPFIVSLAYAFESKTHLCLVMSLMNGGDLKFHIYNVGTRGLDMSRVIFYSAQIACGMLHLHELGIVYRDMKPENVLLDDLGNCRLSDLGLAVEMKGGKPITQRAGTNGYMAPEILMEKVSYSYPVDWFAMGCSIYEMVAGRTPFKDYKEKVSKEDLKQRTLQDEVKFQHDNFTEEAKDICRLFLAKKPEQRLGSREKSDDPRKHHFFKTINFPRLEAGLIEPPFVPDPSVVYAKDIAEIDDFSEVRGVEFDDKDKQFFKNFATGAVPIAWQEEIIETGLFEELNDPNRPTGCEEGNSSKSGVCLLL
Chain of Phosphorylase b kinase gamma catalytic chain, skeletal muscle/heart isoform (Homo sapiens) (Q16816 whole entry, looked up, canonical isoform): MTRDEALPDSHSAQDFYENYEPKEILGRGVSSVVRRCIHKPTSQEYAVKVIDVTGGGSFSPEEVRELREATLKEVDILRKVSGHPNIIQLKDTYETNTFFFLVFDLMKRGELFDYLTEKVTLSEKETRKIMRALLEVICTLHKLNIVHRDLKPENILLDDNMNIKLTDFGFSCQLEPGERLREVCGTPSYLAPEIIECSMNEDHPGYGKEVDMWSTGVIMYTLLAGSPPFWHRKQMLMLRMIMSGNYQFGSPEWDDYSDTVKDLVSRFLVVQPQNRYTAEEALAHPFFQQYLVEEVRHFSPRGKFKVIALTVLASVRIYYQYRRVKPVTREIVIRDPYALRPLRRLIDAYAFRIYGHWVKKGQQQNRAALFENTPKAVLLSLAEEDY

activity [1]: 97%
activity [2]: 101%
activity [3]: 101%
activity [4]: 93%
activity [5]: 97%
activity [6]: 96%
activity [7]: 71%
activity [8]: 105%
activity [9]: 100%
activity [10]: 94%
activity [11]: 96%
activity [12]: 98%
activity [13]: 87%
activity [14]: 100%
activity [15]: 95%
activity [16]: 120%
activity [17]: 98%
activity [18]: 101%
activity [19]: 98%
activity [20]: 97%
activity [21]: 92%
activity [22]: 84%
activity [23]: 111%
activity [24]: 85%
activity [25]: 107%
activity [26]: 105%
IC50 [27]: > 10 µM (not active)
activity [28]: 106%
activity [29]: 76%
activity [30]: 102%
activity [31]: 85%
activity [32]: 97%
activity [33]: 101%
activity [34]: 80%
activity [35]: 100%
activity [36]: 104%
activity [37]: 99%
activity [38]: 110%
activity [39]: 99%
SMILES: Cc1cc2c(-c3ccc(NC(=O)[C@H](N)CC(C)(C)C)cc3C)ccnc2[nH]1
